{"source": "patent US8034844B2", "about": "“Compositions having a high antiviral efficacy” (The Dial Corporation, priority 2006, dated 2011)", "origin": "cited, not measured here", "tested_on": "rhinoviral infections", "settings": "vs placebo users", "data": [{"smiles": "II", "note": "[iodine]", "values": [{"measurement": "Incidence of colds in users", "value": "significantly fewer colds than placebo users"}]}]}
